Consider one molecule from US5945400A, “Nucleic acid-containing composition, preparation and use thereof” (Rhone-Poulenc Rorer SA, priority 1995, dated 1999).

The test system of one experiment is NIH 3T3 cells. Kind of experiment: in vitro transfer of nucleic acid into NIH 3T3 cells with DOGS (luciferase activity). The class given is cell-based. The conditions noted are these: 0.25 μg compound. On the procedure:
(§1) 1. A mixture of 10 μl composed of the following is prepared:
0.5 μg of pCMV-luc plasma DNA, 0.25 μg of a compound according to the invention, in a buffer solution as identified,
40 mM dioctadecylamidoglycylspermine (DOGS) in charge ratios X as indicated in each of the tests. 2. 5·10^4 cells from the NIH3T3 lines are incubated with the above mixture at 37° C., under an atmosphere of 5% CO2 for 4 hours. The cells are then washed and recultured for 48 hours in a medium containing 10% serum (DMEM 10% SVF).
The cell carpet is then lysed in 50 μl of lysis buffer (Promega), recovered and then centrifuged at 20,000 g for 5 minutes.
The luciferase activity is measured on 4 μl of supernatant by adding 20 μl of substrate (Promega). The reading is taken on a LKB luminometer, cumulating the RLUs (relative light units) over 20 seconds.
3. Compaction in 150 mM NaCl, 10 mM HEPES* (* N-(2-hydroxyethyl)piperazine-N'-(2-ethanesulphonic acid) at pH 7.1
4. Compaction in 5% D-glucose, 150 mM NaCl, with 10 mM HEPES (pH of the compaction solution: 7.2)

A further experiment has as its system NIH3T3 cells. Kind of experiment: Variation of compound/DNA ratio in the presence of DOGS, luciferase activity. The class given is cell-based. The conditions noted are these: PEP/DNA w/v 0 (no peptide); DOGS charge ratio 1.8x; 0.75 μg DNA. On the procedure:
as §1
0.75 μg of pCMV-luc plasma DNA and a compound according to the invention in the ratio indicated, in 5% D-glucose, 150 mM NaCl buffer solution, with 10 mM HEPES (pH of the compaction solution: 7.2),
40 mM dioctadecylamidoglycylspermine (DOGS) in a charge ratio of 1.8×.
2. 4·10^5 cells from NIH3T3 lines are incubated with the above mixture at 37° C., under an atmosphere of 5% CO2 for 4 hours. The cells are then washed and recultured for 48 hours in a medium containing 10% serum (DMEM 10% SVF). The cell carpet is then lysed, 45 hours after the transfection, in 100 μl of lysis buffer (Promega), recovered and then centrifuged at 20,000 g for 5 minutes. The luciferase activity is measured on 5 μl of the supernatant, adding 25 μl of substrate (Promega). The reading is taken on an LKB luminometer, cumulating the RLUs (relative light units) over 20 seconds.

For `CCCCCCCCCCCCCCCCCCN(CCCCCCCCCCCCCCCCCC)C(=O)CNC(=O)C(CCCNCCCN)NCCCN` (stereo not shown) [DOGS, dioctadecylamidoglycylspermine], the luciferase activity in the experiment on NIH 3T3 cells (Table 1, DOGS/DNA charge ratio 0.8x, compaction in 150 mM NaCl, 10 mM HEPES pH 7.1, 0.5 μg pCMV-luc) came to 32 R.L.U; in the experiment on NIH 3T3 cells (Table 1, DOGS/DNA charge ratio 1.8x, 150 mM NaCl, 10 mM HEPES pH 7.1, 0.5 μg pCMV-luc), 220 R.L.U; in the experiment with NIH 3T3 cells (Table 1, DOGS/DNA charge ratio 3x, 150 mM NaCl, 10 mM HEPES pH 7.1, 0.5 μg pCMV-luc), 5400 R.L.U; in the experiment on NIH 3T3 cells (Table 2, DOGS/DNA charge ratio 0.8x, 5% D-glucose, 150 mM NaCl, 10 mM HEPES pH 7.2, 0.5 μg DNA), 880 R.L.U; in the experiment with NIH 3T3 cells (Table 2, DOGS/DNA charge ratio 1.8x, 5% D-glucose, 150 mM NaCl, 10 mM HEPES pH 7.2, 0.5 μg DNA), 6600 R.L.U; in the experiment on NIH 3T3 cells (Table 2, DOGS/DNA charge ratio 3x, 5% D-glucose, 150 mM NaCl, 10 mM HEPES pH 7.2, 0.5 μg DNA), 22000 R.L.U. Moreover, in the experiment on NIH3T3 cells, the luciferase activity came to 2150 RLU.
